Measurements: publication PMC12566046, “Arylpiperazinyl-Benzocycloheptapyrrole-Carboxamides Endowed with Dual Anticancer and Antiviral Activities” (Molecules, 2025)
Read-outs that look alike come from different tables or passages of the source.

Legend:
[1] = test system: K-562 (leukemia cell line); assay: NCI-60 single-dose assay; format: cell-based; conditions: Homo sapiens, K562, read-out: growth inhibition (GI%) and cytotoxicity (negative values)
Source text: We first evaluated the cytotoxic activity of tricyclic-pyrrole carboxamides 1–20 using the NCI-60 cell line panel, representing nine different human cancers: leukemia, melanoma, and cancers of the lung, colon, central nervous system (CNS), ovary, kidney, prostate, and breast (the one-dose graph for compounds 1–20 is reported in Supplementary Materials, Figures S43–S62). Compounds 1, 5, 10, 11, 17, and 20 satisfied pre-determined threshold inhibition criteria in a minimum number of cell lines; therefore, they were also tested in the full five-dose assay (Figures S63–S68 in the Supplementary Materials).

[2] = test system: SK-MEL-5 (melanoma cell line); assay: NCI-60 single-dose assay; format: cell-based, human; conditions: human
In short: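 One-dose NCI-60 screen measuring cytotoxic activity; compounds meeting pre-set threshold inhibition criteria in a minimum number of lines advanced to the five-dose assay.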

[3] = test system: CCRF-CEM (leukemia cell line); assay: NCI-60 five-dose assay; format: cell-based, human; conditions: five doses (10^−4–10^−8 M), read-out: Growth inhibition 50 (GI50)
[4] = test system: K-562 (leukemia cell line); assay: NCI-60 five-dose assay; format: cell-based, human; conditions: read-out: Growth inhibition 50 (GI50)
[5] = test system: MOLT-4 (leukemia cell line); assay: NCI-60 five-dose assay; format: cell-based, human; conditions: five doses (10^−4–10^−8 M), read-out: Growth inhibition 50 (GI50)
[6] = test system: RPMI-8226 (leukemia cell line); assay: NCI-60 five-dose assay; format: cell-based, human; conditions: five doses (10^−4–10^−8 M), read-out: Growth inhibition 50 (GI50)
SR (leukemia cell line) = assay: NCI-60 five-dose assay; format: cell-based, human; conditions: five doses (10^−4–10^−8 M), read-out: Growth inhibition 50 (GI50)
[7] = test system: HCT-15 (colon cancer cell line); assay: NCI-60 five-dose assay; format: cell-based, human; conditions: five doses (10^−4–10^−8 M), read-out: Growth inhibition 50 (GI50)
[8] = test system: KM12 (colon cancer cell line); assay: NCI-60 five-dose assay; format: cell-based, human; conditions: five doses (10^−4–10^−8 M), read-out: Growth inhibition 50 (GI50)
[9] = test system: SW-620 (colon cancer cell line); assay: NCI-60 five-dose assay; format: cell-based, human
[10] = test system: MDA-MB-468 (breast cancer); assay: NCI-60 five-dose assay; format: cell-based, human; conditions: five-dose screen
[11] = test system: RXF 393 (renal cancer cells); assay: NCI-60 five-dose assay; format: cell-based, human; conditions: five-dose screen
[12] = test system: ZIKV, strain Brazil/2016/INMI1; assay: ZIKV viral yield reduction assay on Huh-7 cells; format: cell-based, Zika virus; conditions: preliminary screening (50, 5, 0.5 μM), Huh-7, read-out: ZIKV/Huh‐7 EC50
In short: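 Huh-7 cells infected with ZIKV at MOI 1 for 2 h at 37 °C, compounds added right after infection in duplicate at 50, 5 and 0.5 μM. Supernatants taken at 48 h and titrated by plaque assay on VERO E6 under carboxymethyl cellulose with crystal violet staining. % inhibition from PFU/mL versus DMSO-treated control; SI = CC50/EC50.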

[13] = test system: SARS-CoV-2 VR PV10734 (strain Milano); assay: microbe, parasite or virus in culture; format: cell-based; conditions: preliminary screening (50, 5, 0.5 μM), Vero TMPRSS, read-out: SARS‐CoV‐2/Vero TMPRSS EC50
in vitro [14] = conditions: dog
in vitro [15] = conditions: African green monkey
[16] = test system: MALME-3M (melanoma cell line); assay: NCI-60 five-dose assay; conditions: for GI50: read-out: Growth inhibition 50 (GI50); for CC50: read-out: LC50 (molar concentration leading to 50% net cell death)
M14 (melanoma cell line) = assay: NCI-60 five-dose assay
[17] = test system: SK-MEL-5 (melanoma cell line); assay: NCI-60 five-dose assay
[18] = test system: UACC-257 (melanoma cell line); assay: NCI-60 five-dose assay
[19] = test system: IAV strain A/PR/8/34 (H1N1); assay: microbe, parasite or virus in culture; conditions: Influenza A virus, MDCK, read-out: IAV/MDCK EC50
[20] = Cytotoxicity on uninfected Huh-7 cells (WST-8, crystal violet); conditions: human, uninfected Huh-7 cells
Protocol: The toxicity of the compounds at the same concentration was tested on the same cells in parallel.
Cytotoxic effects were evaluated on uninfected cells using the WST-8 assay (Orangu, Cell Guidance Systems, Cambridge, UK) and the crystal violet assay [23]. […] Huh-7, MDCK, and Vero TMPRSS cells were seeded at 1 × 10^4, 1.5 × 10^4, and 1.2 × 10^4 cells/well, respectively, and incubated for 48 h (Huh-7 and MDCK) or 24 h (VERO TMPRSS), following conditions matching those of the corresponding antiviral assays in terms of timing and culture medium. At the end of incubation, the medium was replaced with a 10% WST-8 solution in DMEM and incubated for 1 h at 37 °C. Optical density (OD) was then measured at 450 nm using a Varioskan LUX plate reader (ThermoFisher Scientific, Milano, Italy). Subsequently, cells were fixed with 4% buffered formalin solution (Merck®, Darmstadt, Germany), stained with 1% crystal violet (Merck®, Darmstadt, Germany), and the dye was solubilized in 30% acetic acid for 30 min under shaking. OD was then measured at 595 nm as an additional readout of cell viability. The percentage of viability at each concentration was calculated using the formula:% viability = 100 × (ODcompound/ODuntreated control) where ODcompound and ODuntreated are the OD of the cells treated with compound or DMSO, respectively.
The CC50 value was determined by nonlinear regression analysis on GraphPad Prism 7 (San Diego, CA, USA).

[21] = Homo sapiens, K562, five doses (10^−4–10^−8 M)
[22] = Homo sapiens, M14, read-out: Growth inhibition 50 (GI50)
[23] = Homo sapiens, M14, read-out: LC50 (molar concentration leading to 50% net cell death)
[24] = Homo sapiens, SK-MEL-5, read-out: Growth inhibition 50 (GI50)
[25] = Homo sapiens, UACC-257, read-out: Growth inhibition 50 (GI50)

Molecule | inhibition at 10 µM [1] [%] | growth inhibition (GI%) and cytotoxicity (negative values) [2] [%] | GI50 ([3]; Homo sapiens) [µM] | GI50 [4, 21] [nM] | GI50 ([5]; Homo sapiens) [µM] | GI50 ([6]; Homo sapiens) [nM] | GI50 (SR (leukemia cell line); Homo sapiens) [nM] | GI50 ([7]; Homo sapiens) [µM] | GI50 ([8]; Homo sapiens) [µM] | GI50 ([10]; Homo sapiens) [nM] | GI50 ([11]; Homo sapiens) [nM] | EC50 ([12]; Zika virus) [µM] | CC50 (in vitro [14]) [µM] | CC50 at 24 h (in vitro [15]) [µM] | GI50 ([16]; Homo sapiens, Malme-3M) [nM] | CC50 ([16]; Homo sapiens, Malme-3M) [µM] | TGI (molar concentration giving total growth inhibition) ([16]; MALME-3M) [µM] | TGI (molar concentration giving total growth inhibition) (M14 (melanoma cell line); M14) [µM] | TGI (molar concentration giving total growth inhibition) ([17]; SK-MEL-5) [µM] | TGI (molar concentration giving total growth inhibition) ([18]; UACC-257) [µM] | other results
CCN1CCC[C@H]1CNC(=O)c1[nH]c2c(c1Cl)CCCc1ccccc1-2 [Compound 1, (S)-3-Chloro-N-(1-ethyl-2-pyrrolidinylmethyl)-5,6-dihydro-4H-benzo[6,7]cyclohepta[1,2-b]pyrrol-2-carboxamide] | 94 | −88.03 | 5.96 | 1760 | 3.57 | 2290 | 2290 | 2.31 | 3.02 | 2680 | 2700 | 2.07 | 1.75 | 14.7 | 1540 | 5.62 | 2.95 | 4.36 | 3.09 | 3.98 | GI50 ([9]; Homo sapiens, SW-620, read-out: Growth inhibition 50 (GI50)): 1.75 µM; EC50 ([13]; Severe acute respiratory syndrome coronavirus 2): 9.61 µM; GI50 (M14 (melanoma cell line); [22]): 2030 nM; CC50 (M14 (melanoma cell line); [23]): 9.12 µM; GI50 [17, 24]: 1680 nM; CC50 ([17]; Homo sapiens, SK-MEL-5, read-out: LC50 (molar concentration leading to 50% net cell death)): 5.62 µM; GI50 [18, 25]: 1880 nM; CC50 ([18]; Homo sapiens, UACC-257, read-out: LC50 (molar concentration leading to 50% net cell death)): 8.51 µM; EC50 [19]: 17.7 µM; CC50 at 48 h [20]: 3.88 µM
O=C(NCCCN1CCN(c2ccccc2)CC1)c1cc2c([nH]1)-c1ccccc1CCC2 [Compound 10, N-(3-(4-Phenylpiperazin-1-yl)propyl)-1,4,5,6-tetrahydrobenzo[6,7]cyclohepta[1,2-b]pyrrole-2-carboxamide] | 99.4 | −72.58 | 8.21 | 2580 | 4.97 | 3000 | 2290 | 4.71 | 4.89 | 2930 | 2060 | 3.59 | 67.8 | 55.7 | 1650 | 15.5 | 4.36 | 8.51 | 9.77 | 6.61 | GI50 ([9]; Homo sapiens, SW-620, five doses (10^−4–10^−8 M), read-out: Growth inhibition 50 (GI50)): 8.89 µM; GI50 (M14 (melanoma cell line); [22]): 2780 nM; CC50 (M14 (melanoma cell line); [23]): 44.7 µM; GI50 [17, 24]: 2710 nM; GI50 [18, 25]: 2290 nM; CC50 at 48 h [20]: 12.4 µM
N-(3-(4-Benzylpiperazin-1-yl)propyl)-2-chloro-1,4,5,6-tetrahydrobenzo[6,7]cyclohepta[1,2-b]pyrrole-2-carboxamide [Compound 11] |  |  |  |  |  |  |  |  |  |  |  |  |  |  |  |  | 3.48 | 3.55 | 3.09 | 3.39 | GI50 [3]: 3.89 µM; GI50 ([4]; five doses (10^−4–10^−8 M)): 2570 nM; GI50 [5]: 2.69 µM; GI50 [6]: 2200 nM; GI50 (SR (leukemia cell line)): 2490 nM; GI50 [7]: 3.65 µM; GI50 [8]: 4.11 µM; GI50 ([9]; SW-620, five doses (10^−4–10^−8 M), read-out: Growth inhibition 50 (GI50)): 3.57 µM; GI50 [10]: 2690 nM; GI50 [11]: 1960 nM; EC50 [12]: 3.49 µM; EC50 [13]: 17.7 µM; GI50 ([16]; MALME-3M, five doses (10^−4–10^−8 M)): 1900 nM; CC50 ([16]; MALME-3M): 6.46 µM; GI50 (M14 (melanoma cell line); read-out: Growth inhibition 50 (GI50), M14, five doses (10^−4–10^−8 M)): 1830 nM; CC50 (M14 (melanoma cell line); read-out: LC50 (molar concentration leading to 50% net cell death), M14): 6.92 µM; GI50 ([17]; read-out: Growth inhibition 50 (GI50), SK-MEL-5, five doses (10^−4–10^−8 M)): 1720 nM; CC50 ([17]; read-out: LC50 (molar concentration leading to 50% net cell death), SK-MEL-5): 5.62 µM; GI50 ([18]; read-out: Growth inhibition 50 (GI50), UACC-257, five doses (10^−4–10^−8 M)): 1740 nM; CC50 ([18]; read-out: LC50 (molar concentration leading to 50% net cell death), UACC-257): 6.61 µM
